Reference: ChEMBL document CHEMBL1156023, “Grassystatins A-C from marine cyanobacteria, potent cathepsin E inhibitors that reduce antigen presentation” (J Med Chem, 2009)
Square brackets hold non-standard residues; d marks the D form. Peptide text beside a SMILES is read from it. * marks the point of attachment. Sta = CC(C)C[C@H](N)[C@@H](O)CC(=O)O; NMe2Val = CC(C)[C@@H](C(=O)*)N(C)C; dNMeF = CN[C@H](Cc1ccccc1)C(=O)O; dHiv = CC(C)[C@@H](O)C(=O)O; Hiv = CC(C)[C@H](O)C(=O)O

How the values were obtained:
[1] = target: Tryptase gamma (Homo sapiens) (UniProt Q9NRR2); assay: Inhibition of human lung tryptase gamma1 assessed as residual activity at 10 uM after 10 to 15 mins by fluorescence assay relative to control
[2] = target: Disintegrin and metalloproteinase domain-containing protein 17 (Homo sapiens, UniProt P78536); details: 5.08 to 100000 nM
[3] = target: Dipeptidyl peptidase 9 (Homo sapiens) (UniProt Q86TI2); assay: Inhibition of DPP9 assessed as residual activity at 10 uM after 10 to 15 mins by fluorescence assay relative to control
[4] = target: Interstitial collagenase (Homo sapiens, UniProt P03956); assay: Inhibition of MMP1 after 10 to 15 mins by fluorescence assay
[5] = target: Prothrombin (Homo sapiens) (UniProt P00734); assay: Inhibition of thrombin alpha assessed as residual activity at 10 uM after 10 to 15 mins by fluorescence assay relative to control
[6] = target: Stromelysin-2 (Homo sapiens, UniProt P09238); assay: Inhibition of MMP10 catalytic domain after 10 to 15 mins by fluorescence assay
[7] = target: Caspase-7 (Homo sapiens) (UniProt P55210); assay: Inhibition of caspase 7 assessed as residual activity at 10 uM after 10 to 15 mins by fluorescence assay relative to control
[8] = target: Renin (Homo sapiens, UniProt P00797); assay: Inhibition of human renin after 10 to 15 mins by fluorescence assay
[9] = target: Papain (Carica papaya) (UniProt P00784); assay: Inhibition of papaya papain assessed as residual activity at 10 uM after 10 to 15 mins by fluorescence assay relative to control
[10] = target: Caspase-10 (Homo sapiens, UniProt Q92851); assay: Inhibition of caspase 10 after 10 to 15 mins by fluorescence assay
[11] = target: Urokinase-type plasminogen activator (Homo sapiens) (UniProt P00749); assay: Inhibition of urokinase assessed as residual activity at 10 uM after 10 to 15 mins by fluorescence assay relative to control
[12] = target: Matrilysin (Homo sapiens) (UniProt P09237); assay: Inhibition of MMP7 assessed as residual activity at 10 uM after 10 to 15 mins by fluorescence assay relative to control
[13] = target: Matrix metalloproteinase-14 (Homo sapiens, UniProt P50281); assay: Inhibition of MMP14 assessed as residual activity at 10 uM after 10 to 15 mins by fluorescence assay relative to control
[14] = target: Pro-cathepsin H (Homo sapiens) (UniProt P09668); assay: Inhibition of cathepsin H assessed as residual activity at 10 uM after 10 to 15 mins by fluorescence assay relative to control
[15] = target: 72 kDa type IV collagenase (Homo sapiens, UniProt P08253); assay: Inhibition of MMP2 after 10 to 15 mins by fluorescence assay
[16] = target: T1, Stromelysin-1 (Homo sapiens, UniProt P08254); assay: Inhibition of MMP3 after 10 to 15 mins by fluorescence assay
[17] = target: Caspase-4 (Mus musculus, UniProt P70343); assay: Inhibition of mouse caspase 11 after 10 to 15 mins by fluorescence assay
[18] = target: Stromelysin-3 (Homo sapiens) (UniProt P24347); assay: Inhibition of MMP11 assessed as residual activity at 10 uM after 10 to 15 mins by fluorescence assay relative to control
[19] = target: Angiotensin-converting enzyme (Homo sapiens) (UniProt P12821); assay: Inhibition of ACE1 assessed as residual activity at 10 uM after 10 to 15 mins by fluorescence assay relative to control
[20] = target: T1, Stromelysin-1; assay: Inhibition of MMP3 assessed as residual activity at 10 uM after 10 to 15 mins by fluorescence assay relative to control
Target sequence in this assay (P08254 100-477 limits assumed): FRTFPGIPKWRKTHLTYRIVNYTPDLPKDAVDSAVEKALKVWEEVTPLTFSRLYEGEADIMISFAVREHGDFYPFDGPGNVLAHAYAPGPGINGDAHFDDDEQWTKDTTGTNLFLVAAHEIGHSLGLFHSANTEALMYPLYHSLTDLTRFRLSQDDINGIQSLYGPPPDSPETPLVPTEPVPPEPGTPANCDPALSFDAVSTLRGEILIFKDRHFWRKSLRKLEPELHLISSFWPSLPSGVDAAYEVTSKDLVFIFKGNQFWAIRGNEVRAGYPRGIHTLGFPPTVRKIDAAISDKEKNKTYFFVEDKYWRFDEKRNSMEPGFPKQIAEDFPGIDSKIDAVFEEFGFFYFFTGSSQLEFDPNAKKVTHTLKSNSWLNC

[21] = target: Beta-secretase 1 (Homo sapiens) (UniProt P56817); assay: Inhibition of BACE1 assessed as residual activity at 10 uM after 10 to 15 mins by fluorescence assay relative to control
[22] = target: Caspase-9 (Homo sapiens, UniProt P55211); assay: Inhibition of caspase 9 after 10 to 15 mins by fluorescence assay
[23] = target: Caspase-14 (Homo sapiens) (UniProt P31944); assay: Inhibition of caspase 14 assessed as residual activity at 10 uM after 10 to 15 mins by fluorescence assay relative to control
[24] = target: Cathepsin E (Homo sapiens) (UniProt P14091); details: 5.08 to 100000 nM
[25] = target: Caspase-6 (Homo sapiens, UniProt P55212); assay: Inhibition of caspase 6 after 10 to 15 mins by fluorescence assay
[26] = target: Caspase-4 (Mus musculus) (UniProt P70343); assay: Inhibition of mouse caspase 11 assessed as residual activity at 10 uM after 10 to 15 mins by fluorescence assay relative to control
[27] = target: Caspase-9 (Homo sapiens) (UniProt P55211); assay: Inhibition of caspase 9 assessed as residual activity at 10 uM after 10 to 15 mins by fluorescence assay relative to control
Caspase-9 (Homo sapiens), sequence (P55211 1-315 limits assumed): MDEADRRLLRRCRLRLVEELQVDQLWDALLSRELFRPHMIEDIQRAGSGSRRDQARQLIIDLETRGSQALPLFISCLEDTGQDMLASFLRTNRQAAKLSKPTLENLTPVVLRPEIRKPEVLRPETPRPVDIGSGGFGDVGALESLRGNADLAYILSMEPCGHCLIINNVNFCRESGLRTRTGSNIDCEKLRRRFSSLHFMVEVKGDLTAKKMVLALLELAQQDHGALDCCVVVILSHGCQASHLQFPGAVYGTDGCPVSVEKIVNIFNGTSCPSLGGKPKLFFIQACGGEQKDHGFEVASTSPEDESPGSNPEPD
Caspase-9 (Homo sapiens), sequence (P55211 331-416 limits assumed): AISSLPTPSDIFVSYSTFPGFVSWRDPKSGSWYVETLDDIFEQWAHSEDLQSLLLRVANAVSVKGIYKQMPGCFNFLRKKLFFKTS

Stromelysin-3 (Homo sapiens), sequence (P24347 whole entry): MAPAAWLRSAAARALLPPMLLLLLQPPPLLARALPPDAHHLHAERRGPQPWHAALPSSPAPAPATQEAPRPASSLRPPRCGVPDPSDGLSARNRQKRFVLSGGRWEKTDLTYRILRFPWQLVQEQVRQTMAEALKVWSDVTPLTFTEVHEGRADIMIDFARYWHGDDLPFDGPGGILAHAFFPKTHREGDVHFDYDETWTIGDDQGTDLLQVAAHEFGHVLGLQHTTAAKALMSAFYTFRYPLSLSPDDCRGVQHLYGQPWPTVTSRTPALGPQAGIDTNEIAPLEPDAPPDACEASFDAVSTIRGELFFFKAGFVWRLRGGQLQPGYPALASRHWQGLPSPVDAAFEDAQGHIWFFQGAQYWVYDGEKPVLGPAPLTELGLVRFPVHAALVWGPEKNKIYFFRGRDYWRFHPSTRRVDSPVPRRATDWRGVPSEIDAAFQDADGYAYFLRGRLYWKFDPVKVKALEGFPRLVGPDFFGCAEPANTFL
Cathepsin E (Homo sapiens), sequence (P14091 whole entry): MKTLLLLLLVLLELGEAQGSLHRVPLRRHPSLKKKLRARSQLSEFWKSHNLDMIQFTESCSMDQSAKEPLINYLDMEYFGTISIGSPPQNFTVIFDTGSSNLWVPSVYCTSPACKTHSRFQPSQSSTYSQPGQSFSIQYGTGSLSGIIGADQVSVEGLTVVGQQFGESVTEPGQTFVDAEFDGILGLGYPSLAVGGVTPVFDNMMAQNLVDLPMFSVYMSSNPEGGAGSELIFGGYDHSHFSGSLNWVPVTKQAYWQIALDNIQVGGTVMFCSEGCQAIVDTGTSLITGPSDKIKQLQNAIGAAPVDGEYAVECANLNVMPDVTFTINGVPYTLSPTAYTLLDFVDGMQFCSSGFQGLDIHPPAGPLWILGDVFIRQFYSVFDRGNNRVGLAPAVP
Caspase-6, sequence (P55212 24-179 limits assumed): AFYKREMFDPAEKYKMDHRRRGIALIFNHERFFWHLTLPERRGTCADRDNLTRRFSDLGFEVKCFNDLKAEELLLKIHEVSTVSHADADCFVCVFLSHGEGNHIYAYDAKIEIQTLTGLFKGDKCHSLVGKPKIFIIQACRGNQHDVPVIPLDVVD
Caspase-6, sequence (P55212 194-293 limits assumed): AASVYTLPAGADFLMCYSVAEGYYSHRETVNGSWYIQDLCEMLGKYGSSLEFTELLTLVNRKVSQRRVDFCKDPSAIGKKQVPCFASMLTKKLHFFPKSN
Caspase-10, sequence (Q92851 220-415 limits assumed): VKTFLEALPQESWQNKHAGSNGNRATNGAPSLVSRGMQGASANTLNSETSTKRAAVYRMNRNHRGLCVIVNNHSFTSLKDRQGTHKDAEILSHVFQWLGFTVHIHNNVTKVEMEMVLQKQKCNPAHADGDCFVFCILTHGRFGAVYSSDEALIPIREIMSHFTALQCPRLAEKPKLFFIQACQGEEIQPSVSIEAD
Caspase-10, sequence (Q92851 416-521 limits assumed): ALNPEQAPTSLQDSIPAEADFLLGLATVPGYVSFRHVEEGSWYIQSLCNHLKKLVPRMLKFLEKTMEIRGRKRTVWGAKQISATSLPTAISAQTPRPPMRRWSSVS
Caspase-4, sequence (P70343 81-266 limits assumed): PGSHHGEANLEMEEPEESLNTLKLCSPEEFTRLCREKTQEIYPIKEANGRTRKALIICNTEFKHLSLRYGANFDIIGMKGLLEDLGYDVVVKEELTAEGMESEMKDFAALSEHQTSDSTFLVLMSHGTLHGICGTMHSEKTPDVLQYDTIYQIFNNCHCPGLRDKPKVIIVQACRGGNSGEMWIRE
Caspase-4, sequence (P70343 286-373 limits assumed): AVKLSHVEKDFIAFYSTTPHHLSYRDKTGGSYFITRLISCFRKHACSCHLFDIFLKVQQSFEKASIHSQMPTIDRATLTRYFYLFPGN
Caspase-4 (Mus musculus), sequence (P70343 81-266 limits assumed): as the sequence (P70343 81-266 limits assumed) above
Caspase-4 (Mus musculus), sequence (P70343 286-373 limits assumed): as the sequence (P70343 286-373 limits assumed) above
Beta-secretase 1 (Homo sapiens), sequence (P56817 whole entry): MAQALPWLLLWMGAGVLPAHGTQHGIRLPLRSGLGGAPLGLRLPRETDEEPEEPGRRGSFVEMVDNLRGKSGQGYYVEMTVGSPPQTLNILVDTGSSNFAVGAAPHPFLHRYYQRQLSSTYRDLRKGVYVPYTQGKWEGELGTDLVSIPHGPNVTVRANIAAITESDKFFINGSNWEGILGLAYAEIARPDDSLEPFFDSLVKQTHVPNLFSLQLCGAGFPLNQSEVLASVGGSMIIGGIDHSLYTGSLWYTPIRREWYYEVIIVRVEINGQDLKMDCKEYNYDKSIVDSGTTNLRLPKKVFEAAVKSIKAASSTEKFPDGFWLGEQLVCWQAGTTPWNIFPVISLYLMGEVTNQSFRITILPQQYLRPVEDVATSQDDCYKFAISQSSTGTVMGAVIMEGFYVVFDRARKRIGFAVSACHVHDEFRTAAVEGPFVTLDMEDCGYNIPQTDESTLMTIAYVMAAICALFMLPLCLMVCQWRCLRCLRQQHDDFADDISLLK
Renin, sequence (P00797 whole entry): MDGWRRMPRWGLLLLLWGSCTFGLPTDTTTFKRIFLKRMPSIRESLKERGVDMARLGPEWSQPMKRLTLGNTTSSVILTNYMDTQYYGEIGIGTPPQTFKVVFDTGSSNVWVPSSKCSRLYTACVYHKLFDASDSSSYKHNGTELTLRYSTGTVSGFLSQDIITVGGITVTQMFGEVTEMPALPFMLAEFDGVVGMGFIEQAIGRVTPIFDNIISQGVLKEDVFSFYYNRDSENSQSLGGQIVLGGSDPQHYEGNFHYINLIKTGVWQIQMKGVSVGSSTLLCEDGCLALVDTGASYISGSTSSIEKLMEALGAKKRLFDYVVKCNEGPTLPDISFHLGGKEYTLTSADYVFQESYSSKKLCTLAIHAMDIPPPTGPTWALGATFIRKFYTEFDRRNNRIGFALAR
Stromelysin-2, sequence (P09238 whole entry, the tested form may be a part): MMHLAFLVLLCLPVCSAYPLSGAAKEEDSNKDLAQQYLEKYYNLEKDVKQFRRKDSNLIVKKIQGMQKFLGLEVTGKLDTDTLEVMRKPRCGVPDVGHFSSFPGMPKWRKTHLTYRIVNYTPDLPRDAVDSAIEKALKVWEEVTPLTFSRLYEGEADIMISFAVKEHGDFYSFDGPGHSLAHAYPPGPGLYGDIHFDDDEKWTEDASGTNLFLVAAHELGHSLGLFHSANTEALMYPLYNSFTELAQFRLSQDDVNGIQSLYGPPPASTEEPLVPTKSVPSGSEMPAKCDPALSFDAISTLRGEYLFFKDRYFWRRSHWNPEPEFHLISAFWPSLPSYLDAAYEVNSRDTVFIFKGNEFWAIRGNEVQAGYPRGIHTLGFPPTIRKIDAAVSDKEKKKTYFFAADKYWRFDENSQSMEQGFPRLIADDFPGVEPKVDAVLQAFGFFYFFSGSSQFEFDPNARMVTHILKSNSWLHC
Caspase-9, sequence (P55211 1-315 limits assumed): as the sequence (P55211 1-315 limits assumed) above
Caspase-9, sequence (P55211 331-416 limits assumed): as the sequence (P55211 331-416 limits assumed) above
72 kDa type IV collagenase, sequence (P08253 whole entry): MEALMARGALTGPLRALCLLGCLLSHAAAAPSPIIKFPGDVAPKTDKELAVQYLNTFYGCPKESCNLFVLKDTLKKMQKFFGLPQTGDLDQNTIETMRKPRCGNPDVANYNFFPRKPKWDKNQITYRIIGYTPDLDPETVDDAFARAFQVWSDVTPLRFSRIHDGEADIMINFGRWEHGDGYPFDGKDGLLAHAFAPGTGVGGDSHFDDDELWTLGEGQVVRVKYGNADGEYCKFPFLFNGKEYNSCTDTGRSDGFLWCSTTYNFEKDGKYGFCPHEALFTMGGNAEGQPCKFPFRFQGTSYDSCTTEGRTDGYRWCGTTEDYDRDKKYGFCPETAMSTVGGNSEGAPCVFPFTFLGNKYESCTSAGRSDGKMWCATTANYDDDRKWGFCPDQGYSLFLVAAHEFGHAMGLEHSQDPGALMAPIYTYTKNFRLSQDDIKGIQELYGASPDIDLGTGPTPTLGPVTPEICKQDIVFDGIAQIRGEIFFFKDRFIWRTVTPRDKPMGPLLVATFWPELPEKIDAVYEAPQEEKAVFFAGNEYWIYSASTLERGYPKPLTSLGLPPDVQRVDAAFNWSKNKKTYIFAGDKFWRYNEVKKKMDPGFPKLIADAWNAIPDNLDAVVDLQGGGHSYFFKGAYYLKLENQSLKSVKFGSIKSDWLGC

For `COC(=O)[C@@H]1CCCN1C(=O)[C@@H](Cc1ccccc1)N(C)C(=O)[C@H](C)NC(=O)[C@@H](NC(=O)C[C@H](O)[C@H](CC(C)C)NC(=O)[C@H](CC(N)=O)NC(=O)[C@H](CC(C)C)NC(=O)[C@H](OC(=O)[C@@H](OC(=O)[C@H](C(C)C)N(C)C)C(C)C)C(C)C)[C@@H](C)O` [GRASSYSTATIN A] (NMe2Val-[Hiv][dHiv]LN[Sta]TA[dNMeF]P-OMe), the Activity [1] was 80%, the inhibition [2] was “tde” and the Activity [3] was 82%. For the same compound, the IC50 [4] was 5 µM, the Activity [5] was 86% and the IC50 [6] was 5 µM. For the same compound, the Activity [7] was 62%, the IC50 [8] was 50 µM and the Activity [9] was 101%. For the same compound, the IC50 [10] was 5 µM, the Activity [11] was 79% and the Activity [12] was 90%. The Activity [13] was 76%, the Activity [14] was 80% and the IC50 [15] was 5 µM. It also gave an IC50 [16] of 5 µM, an IC50 [17] of 5 µM and an Activity [18] of 88%. It also gave an Activity [19] of 84%, an Activity [20] of 86% and an Activity [21] of 100%. The IC50 [22] was 5 µM, the Activity [23] was 96% and the inhibition [24] was “tde”. It also gave an IC50 [25] of 5 µM, an Activity [26] of 60% and an Activity [27] of 78%.
